# What was measured:
# [1] = in vitro; conditions: African green monkey
# [2] = system: SNV^R18 on DAF-functionalized beads; format: binding
# [3] = system: SNV; format: cell-based, Sin Nombre virus
# [4] = system: Sin Nombre virus (SNV); format: cell-based; conditions: 10 µM
# [5] = system: Hantaan virus (HTN); format: cell-based; conditions: 10 µM
# [6] = system: SNV^F18 bound to Tanoue B cells; conditions: read-out: IC50, competition binding vs SNV^F18 bound to Tanoue B cells
# [7] = system: SNV-induced cAMP production in CHO-A24 cells; format: cell-based
# [8] = molecular target: integrin αIIbβ3 (Homo sapiens, UniProt P05106+P08514); format: cell-based
# [9] = system: Vero E6 cells
# Chain of integrin αIIbβ3 (P08514 32-887 limits assumed): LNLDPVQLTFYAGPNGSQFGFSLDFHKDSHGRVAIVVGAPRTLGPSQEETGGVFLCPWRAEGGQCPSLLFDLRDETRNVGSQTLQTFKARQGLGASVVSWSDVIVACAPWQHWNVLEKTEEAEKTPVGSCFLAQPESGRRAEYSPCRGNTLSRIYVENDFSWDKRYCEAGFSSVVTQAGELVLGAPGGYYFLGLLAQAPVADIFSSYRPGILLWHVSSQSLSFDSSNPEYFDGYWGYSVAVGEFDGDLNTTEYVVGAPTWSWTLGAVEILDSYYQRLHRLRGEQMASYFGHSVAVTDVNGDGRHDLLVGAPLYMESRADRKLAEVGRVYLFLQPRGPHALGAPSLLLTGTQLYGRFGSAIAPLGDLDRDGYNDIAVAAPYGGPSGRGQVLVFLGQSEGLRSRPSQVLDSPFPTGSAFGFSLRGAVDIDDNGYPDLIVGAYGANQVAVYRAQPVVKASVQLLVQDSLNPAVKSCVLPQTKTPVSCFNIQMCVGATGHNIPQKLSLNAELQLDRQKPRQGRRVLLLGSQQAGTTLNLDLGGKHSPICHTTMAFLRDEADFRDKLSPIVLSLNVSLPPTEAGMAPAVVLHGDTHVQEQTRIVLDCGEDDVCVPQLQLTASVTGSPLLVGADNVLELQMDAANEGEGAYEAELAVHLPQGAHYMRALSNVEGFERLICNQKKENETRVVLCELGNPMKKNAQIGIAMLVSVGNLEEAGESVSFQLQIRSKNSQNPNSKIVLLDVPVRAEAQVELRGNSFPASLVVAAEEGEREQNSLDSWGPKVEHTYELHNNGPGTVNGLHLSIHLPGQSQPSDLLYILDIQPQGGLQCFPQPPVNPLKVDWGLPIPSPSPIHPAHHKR
# Chain of integrin αIIbβ3 (P08514 891-1039 partner limits assumed): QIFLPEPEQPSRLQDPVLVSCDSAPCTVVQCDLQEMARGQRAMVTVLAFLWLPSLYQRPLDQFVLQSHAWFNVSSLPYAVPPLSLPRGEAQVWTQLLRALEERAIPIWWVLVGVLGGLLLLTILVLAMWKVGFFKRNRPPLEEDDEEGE
# Chain of integrin αIIbβ3 (P05106 27-788): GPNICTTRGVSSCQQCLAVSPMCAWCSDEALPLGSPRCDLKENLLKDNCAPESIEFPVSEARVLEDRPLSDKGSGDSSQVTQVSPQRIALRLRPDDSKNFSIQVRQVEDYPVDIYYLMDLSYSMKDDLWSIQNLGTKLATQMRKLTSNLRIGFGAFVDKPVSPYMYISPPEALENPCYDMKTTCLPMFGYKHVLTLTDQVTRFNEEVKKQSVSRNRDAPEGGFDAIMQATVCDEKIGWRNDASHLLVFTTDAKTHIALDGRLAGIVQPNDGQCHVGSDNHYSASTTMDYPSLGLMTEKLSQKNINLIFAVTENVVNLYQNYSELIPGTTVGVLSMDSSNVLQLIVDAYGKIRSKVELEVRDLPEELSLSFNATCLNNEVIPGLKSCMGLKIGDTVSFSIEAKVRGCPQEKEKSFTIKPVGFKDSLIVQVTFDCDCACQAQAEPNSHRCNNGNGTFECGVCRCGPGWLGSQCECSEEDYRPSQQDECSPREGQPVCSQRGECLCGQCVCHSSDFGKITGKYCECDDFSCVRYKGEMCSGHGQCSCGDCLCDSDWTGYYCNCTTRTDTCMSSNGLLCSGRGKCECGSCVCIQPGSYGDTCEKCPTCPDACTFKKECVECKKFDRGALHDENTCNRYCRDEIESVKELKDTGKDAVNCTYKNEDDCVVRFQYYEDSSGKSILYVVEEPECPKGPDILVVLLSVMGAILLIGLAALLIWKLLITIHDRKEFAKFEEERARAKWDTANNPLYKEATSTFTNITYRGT
molecule,measurement,setting,value
O=C(Nc1ccc([N+](=O)[O-])cc1Cl)c1cc(Cl)ccc1O [niclosamide],viability,[1],~50%
Cc1c(Cl)cccc1Nc1ccccc1C(=O)O [tolfenamic acid],"koff, drop in bead fluorescence",[2],~ 0.25
COC(=O)Nc1nc2ccc(Sc3ccccc3)cc2[nH]1 [fenbendazole],viability,[1],~70%
O=C(Nc1cc(C(=O)Nc2ccc(S(=O)(=O)O)cc2S(=O)(=O)O)cc(C(=O)Nc2ccc(S(=O)(=O)O)cc2S(=O)(=O)O)c1)Nc1cc(C(=O)Nc2ccc(S(=O)(=O)O)cc2S(=O)(=O)O)cc(C(=O)Nc2ccc(S(=O)(=O)O)cc2S(=O)(=O)O)c1 [NF449],reduction of viral N-protein relative to vehicle-treated cells,[3],> 80%
antimycin,% inhibition of infection by SNV,[4],≥ 80%
same,% inhibition of infection by HTN,[5],≥ 80%
same,"koff, drop in bead fluorescence",[2],~ 0.25
same,IC50,[6],10 µM
same,effect on SNV-stimulated cAMP,[7],inhibited stimulation of cAMP
same,effect on SNV-induced PAC-1 staining,[8],inhibited PAC-1 staining
same,cytopathic effects after 24 hours,[9],minimal cytopathic effects
Cc1cc2c(C(C)C)c(O)c(O)c(C=O)c2c(O)c1-c1c(C)cc2c(C(C)C)c(O)c(O)c(C=O)c2c1O [gossypol],"koff, drop in bead fluorescence",[2],~ 0.25
same,viability,[1],~30%
GRGDSP,effect on SNV-stimulated cAMP,[7],did not affect SNV-stimulated cAMP response
same,effect on SNV-induced PAC-1 staining,[8],inhibited PAC1 staining
tocopherol,cytopathic effects after 24 hours,[9],minimal cytopathic effects

# From paper PMC6469676 (SLAS discovery : advancing life sciences R & D, 2018)
